Data as given in US5290796A, “Substituted 3-piperidinealkanamines and alkanamides and compositions and method of use thereof” (Sterling Winthrop Inc., priority 1992, dated 1994).

How the values were obtained:
sigma receptors [1] = biological target: T1, sigma receptors (Cavia porcellus, UniProt Q60492); experiment: sigma receptor binding, [^3 H](+)-pentazocine; parameters: species or system guinea pig; settings: approximately 0.5 nM radioligand, 37° C., 150 min; for inhibition at 10 µM: percent (%) inhibition of binding at 10 μM, guinea pig brain membranes; for Ki: mean of at least two separate determinations performed in triplicate
T1 construct: Brain tissue was prepared from male Hartley guinea pigs; tissue Hazelton Labs; host or cells: brain membranes of male Hartley guinea pigs
Description: (§1) Brain tissue was prepared from male Hartley guinea pigs (Hazelton Labs, Denver, Pa.) which were anesthetized with CO2 and sacrificed by decapitation. All animal care and use procedures were in accord with the "Guide for the Care and Use of Laboratory Animals" (NIH Publ. No. 86-23, 1985). Homogenization was performed in 10 volumes (wt/vol) of 0.32M sucrose with a Brinkmann Polytron at setting 5, 30 sec. The homogenate was centrifuged at 900 x g for 10 min at 4° C., and the supernatant was collected and centrifuged at 22,000 x g for 20 min at 4° C. The pellet was resuspended in 10 volumes of Tris-HCl buffer (50 mM, pH 7.4), incubated at 37° C. for 30 min, and centrifuged at 22,000 x g for 20 min at 4° C. Following this, the pellet was resuspended in Tris buffer and frozen in 5-10 mL aliquots corresponding to a tissue concentration of 100 mg/mL, at -70° C. Binding characteristics of the membranes were stable for at least one month when stored at -70° C.
On the day of the assay, membrane aliquots were thawed, resuspended in fresh Tris-HCl buffer and stored on ice until use. Each assay tube contained 100 μL of [^3 H]-(+)-pentazocine at a final concentration of approximately 0.5 nM or 100 μL of [^3 H]di(2-tolyl)guanidine (DTG) at a final concentration of approximately 4 nM, 100 μL of various concentrations of the compounds of interest, 500 μL of the tissue suspension and 300 μL of buffer to a final assay volume of 1 mL and a final tissue concentration of approximately 8 mg/tube, corresponding to approximately 0.15 mg protein/tube. Non-specific binding was defined by addition of a final concentration of 1 μM haloperidol to blank tubes for [^3 H](+)-pentazocine assay or by addition of a final concentration of 10 μM haloperidol to blank tubes for [^3 H]DTG assay. All tubes were incubated at 37° C. for 150 min in the [^3 H](+)-pentazocine assay or at 25° C. for 90 min in the [^3 H]DTG assay before termination of the reaction by rapid filtration over Whatman GF/B glass fiber filters that were presoaked in a solution of 0.5% polyethyleneimine for at least 1 hr prior to use. Filters were washed with three 4 ml volumes of cold Tris-HCl buffer.
Following addition of scintillation cocktail, samples were allowed to equilibrate for at least 4 hr. The amount of bound radioactivity was determined by liquid scintillation spectrometry using a Beckman LS 5000 TA liquid scintillation counter with an efficiency for tritium of approximately 60%. The results are reported as a percent (%) inhibition of binding at 10 μM.
(§2) Scatchard parameters and inhibition constants (Ki values) for the binding of test compounds were also calculated using the EBDA/LIGAND program (McPherson, J Pharmacol. Meth. 1985, 14, 213-228), purchased from Elsevier/Biosoft, Inc. The Ki values are expressed as the mean of at least two separate determinations performed in triplicate.

sigma receptors [2] = experiment: sigma receptor binding, [^3 H]di(2-tolyl)guanidine (DTG); parameters: species or system guinea pig; settings: approximately 4 nM radioligand, 25° C., 90 min
Description: as §1, with “Following this, the pellet was resuspended in Tris buffer and frozen in 5-10 mL aliquots corresponding to a tissue concentration of 100 mg/mL, at -70° C. Binding characteristics of the membranes were stable for at least one month when stored at -70° C.” left out
Following addition of scintillation cocktail, samples were allowed to equilibrate for at least 4 hr. The amount of bound radioactivity was determined by liquid scintillation spectrometry using a Beckman LS 5000 TA liquid scintillation counter with an efficiency for tritium of approximately 60%. […]
as §2

T1 sequence (Q60492 whole entry): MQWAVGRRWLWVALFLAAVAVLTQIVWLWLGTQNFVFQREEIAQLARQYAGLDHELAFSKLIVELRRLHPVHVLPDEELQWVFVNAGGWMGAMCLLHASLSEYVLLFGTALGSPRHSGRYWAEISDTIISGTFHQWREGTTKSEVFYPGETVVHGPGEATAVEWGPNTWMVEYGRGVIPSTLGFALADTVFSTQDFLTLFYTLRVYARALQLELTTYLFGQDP

Row | inhibition at 10 µM (sigma receptors [1]) [%] | Compound | also measured
1 | 57 | C[C@@H]1CCN(C)[C@@H](C)[C@]1(C)CCNC1CCCC1 (relative stereo) [Example 1c, N-cyclopentyl-1,2,3,4-tetramethyl-3-piperidineethanamine] | 
2 | 83 | C[C@@H]1CCN(Cc2ccccc2)[C@@H](C)[C@]1(C)CCN (relative stereo) [Example 2b, 2,3,4-trimethyl-1-(phenylmethyl)-3-piperidineethanamine] | 
3 | 90 | C[C@@H]1CCN(C)[C@@H](C)[C@]1(C)CCN(C)C1CCCC1 (relative stereo) [Example 3, N-cyclopentyl-N-1,2,3,4-pentamethyl-3-piperidineethanamine] | 
4 |  | C[C@@H]1CCN(C)[C@@H](C)[C@]1(C)CCN(C)C (relative stereo) [Example 4, N,N-1,2,3,4-hexamethyl-3-piperidineethanamine] | [^3 H]DTG Percent Inhibition (sigma receptors [2]; percent (%) inhibition of binding at 10 μM, guinea pig brain membranes): 20%; Ki (sigma receptors [1]): 23.9 µM
5 | 79 | C[C@@H]1CCN(C)[C@@H](C)[C@]1(C)CCNC(=O)c1ccsc1 (relative stereo) [Example 5, N-[2-(1,2,3,4-tetramethyl-3-piperidinyl)-ethyl]-3-thiophenecarboxamide] | 
6 | 69 | CCOC(=O)NCC[C@]1(C)[C@H](C)CCN(C)[C@H]1C (relative stereo) [Example 6, ethyl-2-(1,2,3,4-tetramethyl-3-piperidinyl)ethyl carbamate] | 
7 |  | C[C@@H]1CCN(C)[C@@H](C)[C@]1(C)CCN1CCCC1 (relative stereo) [Example 10, 1,2,3,4-tetramethyl-3-[2-(1-pyrrolidinyl)ethyl]piperidine] | Ki (sigma receptors [2]; mean of at least two separate determinations performed in triplicate): 7.51 µM; Ki (sigma receptors [1]): 5.98 µM

Row | Compound | inhibition at 10 µM (sigma receptors [1]) [%] | also measured
8 | C[C@@H]1CCN(C)[C@@H](C)[C@]1(C)CCN(C)C(=O)Cc1ccc(Cl)c(Cl)c1 (relative stereo) [Example 7b, 3,4-dichloro-N-methyl-N-[2-(1,2,3,4-tetramethyl-3-piperidinyl)ethyl]benzeneacetamide] | 94 | 
